Data as given in patent US6686467B2, “Amide derivatives for the treatment of diseases mediated by cytokines” (Zeneca Limited, priority 1997, dated 2004).

Assays:
[1] = molecular target: T1, p38α (Homo sapiens, UniProt Q16539); assay: In vitro enzyme assay, p38α isoform; type: biochemical; details: read-out: IC50 against p38α
T1 construct: c-myc (N); 6His (N); made in house; host or cells: E. coli (PET vectors)
Experimental: The ability of compounds of the invention to inhibit the enzyme p38 kinase was assessed. Activity of particular test compounds against each of the p38α and p38β isoforms of the enzyme was determined.
Human recombinant MKK6 (GenBank Accesion Number G1209672) was isolated from Image clone 45578 (Genomics, 1996, 33, 151) and utilised to produce protein in the form of a GST fusion protein in a pGEX vector using analogous procedures to those disclosed by J. Han et al., Journal of Biological Chemistry, 1996, 271, 2886-2891, p38α (GenBank Accession Number G529039) and p38β (GenBank Accession Number G1469305) were isolated by PCR amplification of human lymphoblastoid cDNA (GenBank Accession Number GM1416) and human foetal brain cDNA [synthesised from mRNA (Clontech, catalogue no. 6525-1) using a Gibco superscript cDNA synthesis kit] respectively using oligonucleotides designed for the 5′ and 3′ ends of the human p38α and p38β genes using analogous procedures to those described by J. Han et al., Biochimica et Biophysica Acta, 1995, 1265, 224-227 and Y. Jiang et al. Journal of Biological Chemistry 1996, 271, 17920-17926.
Both p38 protein isoforms were expressed in e coli in PET vectors. Human recombinant p38α and p38β isoforms were produced as 5′ c-myc, 6His tagged proteins. Both MKK6 and the p38 proteins were purified using standard protocols: the GST MKK6 was purified using a glutathione sepharose column and the p38 proteins were purified using nickel chelate columns.
The p38 enzymes were activated prior to use by incubation with MKK6 for 3 hours at 30° C. The unactivated coli-expressed MKK6 retained sufficient activity to fully activate both isoforms of p38. The activation incubate comprised p38α (10 μl of 10 mg/ml) or p38β (10 μl of 5 mg/ml) together with MKK6 (1 μl of 1 mg/ml), ‘Kinase buffer’ [100 μl; pH 7.4 buffer comprising Tris (50 mM), EGTA (0.1 mM), sodium orthovanadate (0.1 mM) and β-mercaptoethanol (0.1%)] and MgATP (30 μl of 50 mM Mg(OCOCH3)2 and 0.5 mM ATP). This produced enough activated p38 enzyme for 3 Microtiter plates.
Test compounds were solubilised in DMSO and 10 μl of a 1:10 diluted sample in ‘Kinase Buffer’ was added to a well in a Microtiter plate. For single dose testing, the compounds were tested at 10 μM. ‘Kinase Assay Mix’ [30 μl; comprising Myelin Basic Protein (Gibco BRL cat. no. 1322B-010; 1 ml of a 3.33 mg/ml solution in water), activated p38 enzyme (50 μl) and ‘Kinase Buffer’ (2 ml)] was then added followed by ‘Labelled ATP’ [10 μl; comprising 50 μM ATP, 0.1 μCi ^33P ATP (Amersham International cat. no. BF1000) and 50 mM Mg(OCOCH3)2]. The plates were incubated at room temperature with gentle agitation. Plates containing p38α were incubated for 90 min and plates containing p38β were incubated for 45 min. Incubation was stopped by the addition of 50 μl of 20% trichloroacetic acid (TCA). The precipitated protein was phosphorylated by p38 kinase and test compounds were assessed for their ability to inhibit this phosphorylation. The plates were filtered using a Canberra Packard Unifilter and washed with 2% TCA, dried overnight and counted on a Top Count scintillation counter.
(§1) Test compounds were tested initially at a single dose and active compounds were retested to allow IC50 values to be determined.

[2] = system: TNFα production by human peripheral blood mononuclear cells; assay: PBMC test: TNFα production after lipopolysaccharide stimulation; type: cell-based; details: LPS-stimulated TNFα production
Experimental: The ability of compounds of this invention to inhibit TNFα production was assessed by using human peripheral blood mononuclear cells which synthesise and secrete TNFα when stimulated with lipopolysaccharide.
Peripheral blood mononuclear cells (PBMC) were isolated from heparinised (10 units/ml heparin) human blood by density centrifugation (Lymphoprep™; Nycomed). Mononuclear cells were resuspended in culture medium [RPMI 1640 medium (Gibco) supplemented with 50 units/ml penicillin, 50 μg/ml streptomycin, 2 mM glutamine and 1% heat-inactivated human AB serum (Sigma H-1513)]. Compounds were solubilised in DMSO at a concentration of 50 mM, diluted 1:100 in culture medium and subsequently serial dilutions were made in culture medium containing 1% DMSO. PBMCs (2.4×10^5 cells in 160 μl culture medium) were incubated with 20 μl of varying concentrations of test compound (triplicate cultures) or 20 μl culture medium containing 1% DMSO (control wells) for 30 minutes at 37° C. in a humidified (5%CO2/95% air) incubator (Falcon 3072; 96 well flat-bottom tissue culture plates). 20 μl lipopolysaccharide [LPS E.Coli 0111:B4 (Sigma L-4130), final concentration 10 μg/ml] solubilised in culture medium was added to appropriate 30 wells. 20 μl culture medium was added to “medium alone” control wells. Six “LPS alone” and four “medium alone” controls were included on each 96 well plate. Varying concentrations of a known TNFα inhibitor were included in each test, i.e. an inhibitor of the PDE Type IV enzyme (for example see Semmler, J. Wachtel. H and Endres. S., Int. J. Immunopharmac. (1993), 15(3), 409-413) or an inhibitor of proTNFα convertase (for example, see McGeehan, G. M. et al. Nature (1994) 370, 558-561). Plates were incubated for 7 hours at 37° C. (humidified incubator) after which 100 μl of the supernatant was removed from each well and stored at −70° C. (96 well round-bottom plates; Corning 25850). TNFα levels were determined in each sample using a human TNFα ELISA (see WO92/10190 and Current Protocols in Molecular Biology, vol 2 by Frederick M. Ausbel et al., John Wiley and Sons Inc.). [formula]

[3] = system: p38 kinase; assay: In vitro enzyme assay, p38 kinase (isoform not specified, or p38α and/or p38β); type: biochemical, human; details: result in words
Experimental: The ability of compounds of the invention to inhibit the enzyme p38 kinase was assessed. Activity of particular test compounds against each of the p38α and p38β isoforms of the enzyme was determined. […]
Test compounds were solubilised in DMSO and 10 μl of a 1:10 diluted sample in ‘Kinase Buffer’ was added to a well in a Microtiter plate. […] The precipitated protein was phosphorylated by p38 kinase and test compounds were assessed for their ability to inhibit this phosphorylation. The plates were filtered using a Canberra Packard Unifilter and washed with 2% TCA, dried overnight and counted on a Top Count scintillation counter.
as §1

T1 sequence (Q16539 whole entry, canonical isoform): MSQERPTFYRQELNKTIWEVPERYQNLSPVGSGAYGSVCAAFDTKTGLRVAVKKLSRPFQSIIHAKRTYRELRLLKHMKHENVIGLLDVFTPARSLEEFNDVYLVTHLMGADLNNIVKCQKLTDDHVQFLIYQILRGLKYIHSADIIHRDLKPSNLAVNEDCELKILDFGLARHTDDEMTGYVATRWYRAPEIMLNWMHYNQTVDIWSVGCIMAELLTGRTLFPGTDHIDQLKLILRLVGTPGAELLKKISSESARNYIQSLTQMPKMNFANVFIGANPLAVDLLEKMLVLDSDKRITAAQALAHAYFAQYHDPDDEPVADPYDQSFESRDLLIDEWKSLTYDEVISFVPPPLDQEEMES

Row | Compound | melting point | IC50 [1] | IC50 [2] | p38 kinase inhibitory activity [3]
1 | Cc1ccc(NC(=O)c2cccc(N(C)C)c2)cc1NC(=O)c1ccccc1O [Example 30, N-[5-(3-dimethylaminobenzamido)-2-methylphenyl]-2-hydroxybenzamide] | 234 to 238 °C |  |  | 
2 | Cc1ccc(NC(=O)CCCC2CCCCC2)cc1NC(=O)c1ccc(O)cc1 [N-[5-(4-Cyclohexylbutyrylamino)-2-methylphenyl]-4-hydroxybenzamide] | 159 to 160 °C |  |  | 
3 | COc1ccc(C(=O)Nc2cc(NC(=O)c3ccc(O)cc3)ccc2C)cc1OC [Example 10, N-[5-(4-hydroxybenzamido)-2-methylphenyl]-3,4-dimethoxybenzamide] | 258 to 259 °C |  |  | 
4 | Cc1ccc(NC(=O)c2ccc(C#N)cc2)cc1NC(=O)c1ccc(O)cc1 [Example 4, N-[5-(4-Cyanobenzamido)-2-methylphenyl]-4-hydroxybenzamide] | 297 to 299 °C |  |  | 
5 | Cc1ccc(NC(=O)c2cccc(N3CCOCC3)c2)cc1NC(=O)c1cccc(N2CCOCC2)c1 [Example 9, Compound No. 50, N-[2-methyl-5-(3-morpholinobenzamido)phenyl]-3-morpholinobenzamide] |  | ~40 nM | ~1500 nM | 
6 | Cc1ccc(NC(=O)CCC2CCCCC2)cc1NC(=O)c1ccc(O)cc1 [N-[5-(3-cyclohexylpropionamido)-2-methylphenyl]-4-hydroxybenzamide] |  | ~400 nM | ~7000 nM | 
7 | Cc1ccc(NC(=O)c2c(F)cccc2Cl)cc1NC(=O)c1ccc(O)cc1 [Example 9, Compound No. 12] |  | ~1700 nM | ~22000 nM | 
8 | COc1ccc(C(=O)Nc2cc(NC(=O)c3cccc(NC(C)=O)c3)ccc2C)cc1OC [Example 33, N-[5-(3-acetamidobenzamido)-2-methylphenyl]-3,4-dimethoxybenzamide] | 187 to 188 °C |  |  | 
9 | COc1ccc(C(=O)Nc2cc(NC(=O)c3cccc(N)c3)ccc2C)cc1OC [Example 13, N-[5-(3-aminobenzamido)-2-methylphenyl]-3,4-dimethoxybenzamide] | 179 to 180 °C | ~700 nM | ~7000 nM | 
10 | Cc1ccc(NC(=O)CCC2CCCC2)cc1NC(=O)c1ccc(O)cc1 [N-[5-(3-cyclopentylpropionamido)-2-methylphenyl]-4-hydroxybenzamide] |  | ~6000 nM |  | 
11 | COc1ccc(C(=O)Nc2cc(NC(=O)c3cccc(Br)c3)ccc2C)cc1OC [Example 6, N-[5-(3-bromobenzamido)-2-methylphenyl]-3,4-dimethoxybenzamide] | 136 to 138 °C |  |  | 
12 | Cc1ccc(NC(=O)c2ccccc2)cc1NC(=O)c1cccc(CN2CCN(C)CC2)c1 [Example 9, Compound No. 51, N-(5-benzamido-2-methylphenyl)-3-(4-methylpiperazin-1-yl)methylbenzamide] |  | ~700 nM | ~3000 nM | 
13 | Cc1ccc(NC(=O)c2cccc(N(C)C)c2)cc1NC(=O)c1ccc(O)cc1 [N-[5-(3-Dimethylaminobenzamido)-2-methylphenyl]-4-hydroxybenzamide] |  |  |  | possess p38 kinase inhibitory activity
14 | COc1ccc(C(=O)Nc2cc(NC(=O)c3cccc(O)c3)ccc2C)cc1OC [Example 11, N-[5-(3-hydroxybenzamido)-2-methylphenyl]-3,4-dimethoxybenzamide] | 182 to 183 °C |  |  | 
15 | COc1ccc(C(=O)Nc2cc(NC(=O)c3cccc(N(C)C)c3)ccc2C)cc1OC [Example 9, Compound No. 7, N-[5-(3-dimethylaminobenzamido)-2-methylphenyl]-3,4-dimethoxybenzamide] |  | ~200 nM | ~7000 nM | 
